# Assay results reported in patent US8198236B2, “Methods and compositions for the treatment of cancer” (Washington University, priority 2007, dated 2012).
# B1: Dkk1: Human recombinant DKK1 protein, LRP6-specific ligand and antagonist (protein)
# chain: TLNSVLNSNAIKNLPPPLGGAAGHPGSAVSAAPGILYPGGNKYQTIDNYQPYPCAEDEECGTDEYCASPTRGGDAGVQICLACRKRRKRCMRHAMCCPGNYCKNGICVSSDQNHFRGEIEETITESFGNDHSTLDGYSRRTTLSSKMYHTKGQEGSVCLRSSDCASGLCCARHFWSKICKPVLKEGQVCTKHRRKGSHGLEIFQRCYCGEGLSCRIQKDHHQASNSSRLHTCQRH
# Assays:
# [1] = mouse, in vivo
# Experimental: In experiments shown in FIG. 23, pharmacokinetics of Mesd peptide and Mesd were examined. FIG. 23A: Amount of Mesd in serum following a single dose of protein administration. Mice were dosed at 5, 10, 20 mg/kg of Mesd via i.p. and the serum samples were collected from individual mice at the indicated time points. The levels of Mesd in serum were quantified by comparison to Mesd pure protein with known concentrations in Western blot analysis. Values are the average of triple determinations with S.D. indicated by error bars. […] Samples were obtained by terminal bleed under anesthesia at each of the indicated time points (N=3 animals per time point). Radioactivity was measured using a gamma counter and DPM converted to mass units/mL blood using the specific activity (DPM/mass) of each test substance. Data are plotted as mass U/mL of test substance with standard deviation indicated by error bars.
# [2] = mouse, in vivo; remark: listed apart in the source
# Experimental: Hemotoxylin and eosin (H&E) staining was performed on tumor xenograft tissue, skin and intestine harvested at the end of Mesd treatment.
# FIG. 24D: H&E staining of tail vertebrae treated with PBS, Mesd or Mesd peptide.
# MMTV-Wnt1 tumors = assay: MMTV-Wnt1 tumor transplant growth in nude mice; assay type: in vivo; settings: i.p. every other day, first dose 15 mg/kg then 10 mg/kg, three weeks
# Experimental: Recombinant Mesd protein was prepared as described (Li Y, et al. (2005) J Cell Sci 118(22): 5305-5314). Mesd peptide, […] (SEQ ID NO: 14), was manufactured by Abgent (San Diego). Female athymic nude mice (Taconic) (6-8 weeks old) were used for passaging tumors from MMTV-Wnt1 mice (Taconic). MMTV-Wnt1 tumors were serially passaged in mice by implantation in the mammary fat pad as described (DeAlmeida V, et al. (2007) Cancer Res 67, 5371-5379). Therapeutic agents (200 μL Mesd protein, Mesd peptide or PBS) were administrated i.p. with a first dose of 15 mg/kg, followed by 10 mg/kg (9 more doses). Three groups of mice were treated every other day for three weeks and tumor volumes were measured thrice weekly.
# The pharmacokinetics and bioavailability of Mesd and Mesd peptide ([…] (SEQ ID NO: 14)) were first investigated (FIG. 23). Cells from MMTV-Wnt1 tumors were injected into the mammary fat pads of female nude mice, and the resultant mice were subsequently randomly grouped when the mean tumor volume reached ca. 200 mm^3. […]
# In these experiments, mice bearing established MMTV-Wnt1 tumor transplants were divided into three groups (five animals per group) and were i.p. injected with PBS (vehicle), Mesd, or Mesd peptide every other day. Tumor volume was analyzed using caliper measurement. […]
# Wnt signaling [3] = assay: Wnt signaling in MMTV-Wnt1 tumors (GST-E-cadherin pull-down, c-Myc expression); assay type: in vivo, mice; settings: GST-E-cadherin pull-down and c-Myc expression
# Experimental: The GST-E-cadherin pulldown assay was performed as previously described (2). Cells expressing control or LRP6 shRNA were treated with L cells or Wnt3a-conditioned media (CM) for 4 h. Free β-catenin was determined using a GST-E-cadherin pull-down assay. Cells were lysed for 30 minutes at 4° C. Protein concentrations in lysates were quantified, and equal quantities of total proteins from different samples were incubated with GST-E-cadherin Sepharose beads for 4 h at 4° C. After incubation, the beads were washed three times and the bound proteins were eluted and separated via SDS-PAGE. Western blotting was performed using antibody to β-catenin.
# In these experiments, mice bearing established MMTV-Wnt1 tumor transplants were divided into three groups (five animals per group) and were i.p. injected with PBS (vehicle), Mesd, or Mesd peptide every other day. Tumor volume was analyzed using caliper measurement. Data represent at least three independent experiments and each time point represents the mean tumor volume±SEM. *p<0.05; **p<0.01. […] Scale bar=50 μm.
# Wnt signaling [4] = assay: TCF/LEF-luc reporter assay in Wnt-3A-treated HEK293 cells; assay type: cell-based; settings: Wnt3A conditioned medium plus Dkk1 at 10 nM, 16 hours at 37° C.
# Experimental: HEK293 cells were plated into six-well plates. For each well, 0.1 μg of the TOP-FLASHTCF luciferase construct (Upstate Biotechnology) was cotransfected with 0.8 μg Mesd-expressing vector, 0.8 μg Mesd mutant-expressing vector, or empty vector. A β-galactosidase-expressing vector (Promega, Madison, Wis.) was included as an internal control for transfection efficiency. After 48 hours, cells were lysed and both luciferase and β-galactosidase activities were determined with enzyme assay kits (Promega). The luciferase activity was determined with a luminometer using the Dual Luciferase Assay system (Promega). Luciferase activity was normalized to the activity of the β-galactosidase.
# In these experiments, transfected cells were treated without Wnt-3A or with Wnt-3A plus the indicated inhibitors (Mesd and/or Dkk1) for 16 hours at 37° C. Wnt signaling was measured by quantifying the luciferase activity using a live cell imaging system.
# HCC1187 cells = assay: MTT assay of Wnt3a CM-stimulated growth of HCC1187 cells; assay type: cell-based, human; settings: Dkk1 10 nM, 24 h
# Experimental: Cell growth and cell proliferation were measured by MTT assay (Promega) and BrdU incorporation using the BrdU ELISA kit (Roche Molecular Systems) according to the manufacturers' instructions. […] Breast cancer cells expressing control or LRP6 shRNA were seeded into 48-well plates. MTT-labeling reagent was added to each well 24 h later, and plates were incubated at 37° C. for 4 h. After the incubation period, the formazan crystals were dissolved in an MTT solubilization reagent and the resulting color was quantified spectrophotometrically. In some experiments, cell proliferation was measured by BrdU incorporation using the BrdU ELISA kit (Roche Molecular Systems) according to the manufacturer's instructions. Briefly, cancer cells expressing control or LRP6 shRNA were plated on 96-well plate. Cells were incubated with BrdU for 24 h, and the newly synthesized BrdU-DNA was then determined by colorimetry using an ELISA reader. All experiments were performed three times in triplicate.
# In FIG. 20, * indicates p<0.05 compared to L cell CM; ** indicates p<0.01 compared to L cell CM.
Molecule,Bioavailability [1],Distribution into tissues [1],Adverse effect on small intestine (gross examination) [2],Architecture of gastrointestinal compartments and skin (H&E) [2],Bone lesions or outgrowths in tail vertebrae [2],General health and body weight of treated mice [2],"Tumor growth (tumor volume, caliper) (MMTV-Wnt1 tumors)",Wnt signaling in tumors compared to control treatment (Wnt signaling [3]),Inhibition of Wnt signaling (luciferase activity) (Wnt signaling [4]),Effect on Wnt3a CM-increased cell growth (HCC1187 cells)
KGGGSKEKNKTKQDKGKKKKEGDLKSRSSKEENRAGNK [Mesd peptide],60%,rapid and widespread,no significant adverse effect,morphologically normal,no significant bone lesions or outgrowths,grossly healthy and maintain their weights,significantly inhibit tumor growth,decreased Wnt signaling,,
B1,,,,,,,,,more potent inhibitor,abolished
